{"source": "ChEMBL document CHEMBL1123224", "about": "“Mechanism of action of the marine natural product stypoldione: evidence for reaction with sulfhydryl groups” (1986)", "assay_type_in_all_cases": "functional", "key": {"[1]": {"species": "Bos taurus", "experiment": "Carboxymethylation of bovine brain tubulin pre-incubated with 17 mol compound per mol tubulin"}, "[2]": {"species": "Bos taurus", "experiment": "Carboxymethylation of bovine brain tubulin pre-incubated with 34 mol compound per mol tubulin"}, "[3]": {"species": "Bos taurus", "experiment": "Carboxymethylation of bovine brain tubulin pre-incubated with 86 mol compound per mol tubulin"}, "[4]": {"species": "Bos taurus", "experiment": "Carboxymethylation of bovine brain tubulin pre-incubated with 69 mol compound per mol tubulin"}, "[5]": {"species": "Bos taurus", "experiment": "Carboxymethylation of bovine brain tubulin pre-incubated with 8.6 mol compound per mol tubulin"}, "[6]": {"species": "Bos taurus", "experiment": "Carboxymethylation of bovine brain tubulin pre-incubated with 0 mol compound per mol tubulin"}}, "data": [{"smiles": "CC1=CC(=O)C(=O)C2=C1O[C@@]1(C2)[C@@H](C)CC[C@@H]2[C@@]3(C)CC[C@H](O)C(C)(C)C3CC[C@]21C", "note": "(stereo partly specified) [STYPOLDIONE]", "values": [{"measurement": "Ratio_[3H]:tubulin", "setting": "[1]", "result": 16}, {"measurement": "Ratio_[3H]:tubulin", "setting": "[2]", "result": 12}, {"measurement": "Ratio_[3H]:tubulin", "setting": "[3]", "result": 4.3}, {"measurement": "Ratio_[3H]:tubulin", "setting": "[4]", "result": 4.8}, {"measurement": "Ratio_[3H]:tubulin", "setting": "[5]", "result": 22}, {"measurement": "Ratio_[3H]:tubulin", "setting": "[6]", "result": 20}]}]}
